Source: US8790883B2, “Methods of identifying NF-κB inhibitors” (priority 2003, dated 2014)
Ends that are not written are not given here. Peptide text beside a SMILES is read from it. * marks the point of attachment. BODIPYFLEthylmaleimide = Cc1cc(C)n2c1C=C1C=CC(CCC(=O)NCCN3C(=O)CC(*)C3=O)=[N+]1[B-]2(F)F; BODIPY = not defined here

What was measured:
[1] = Cytotoxicity of NLM-DR derived peptides (MTS, FACS, microscope), Table 2
[2] = test system: LPS-induced NF-κB activation; experiment: More stringent NF-κB inhibition assay, second procedure: peptide internalization, washing, 24 h growth, then LPS; assay type: cell-based, murine; details: 10 μM peptide
Source text: Left panels show a helical wheel diagram of CC2 (A) and LZ (B) peptides. The view is from the top the molecule. The (a) through (g) positions, which are an essential feature of coiled coil sequence (Vinson, 2002, Mol. Cell. Biol.) represent sequential positions in each peptide sequence. The first (a) and fourth (d) positions that are generally occupied by hydrophobic amino acids constitute the hydrophobic core for parallel as well as antiparallel-coiled coils. Mutations that were introduced in (a) positions of the CC2 variant (BODIPY-Ant-CC2 (Mu); shown as residues 6-40 of SEQ ID NO:3, with glycine mutations corresponding to residues 6-40 of SEQ ID NO:5) or in (d) positions of the LZ variant (BODIPY-Ant-(Mu) are shown. In the right panels, 70Z3-C3 cells were incubated for 2 hours in the absence (control) or in the presence of 10 μM of cell permeable wild type (BODIPY-Ant-CC2 (WT)) or mutant (BODIPY-Ant-CC2 (Mu)) CC2 peptides (A) or wild type (BODIPY-Ant-LZ (WT)) or mutant (BODIPY-Ant-(Mu)) LZ peptides (B). The cells were then extensively washed to remove the excess peptide which had not been internalized and the cells were then diluted three times and allowed to grow for 24 hours before treatment for 5 hours with (+) or without LPS (−). NF-κB activity was measured using the β-galactosidase assay. Error bars represent the standard deviation of two independent experiments.
(A) Sequence alignment of the NEMO-derived LZ (residues 301-336 of SEQ ID NO: 12) and the GCN4 peptides (residues 23-55 of SEQ ID NO:8). Both coiled-coil motifs were aligned using clustalX. Identical and similar amino acid residues (shaded) are indicated by (!) or (*), respectively. (B) Overview and helical wheel diagram of the GCN4 coiled-coil (top view). The amino-acid sequence of GCN4 is shown with its corresponding [a-g] positions and residues that differ from the corresponding NEMO-derived LZ sequence are boxed according to their degree of conservation. Identical (open square) and similar residues (open triangle) are indicated. […] NF-κB activity was measured using the b-galactosidase assay. […]

Procedure for 70Z/3-C3 cells: (A) Cellular delivery of NEMO peptides mediated by conjugation with the Antennapedia peptide.
0.5×10^6 70Z/3-C3 cells in 0.5 ml were incubated at 37° C. for different times and with various concentrations of peptides as indicated in the Figure legends. The cell suspension was centrifugated at 1,000×g at room temperature and the cell pellet was then washed three times with PBS buffer (1 ml), and finally was resuspended with 500 μl of PBS buffer containing 0.1% sodium azide. Fluorescence analysis was performed with a FACSCalibur (BD Biosciences) and a minimum of 15,000 events per sample was selected. All experiments were performed in duplicates.

CC[C@H](C)[C@H](NC(=O)[C@H](CC(=O)O)NC(=O)[C@H](C)NC(=O)[C@H](CCC(N)=O)NC(=O)[C@H](C)NC(=O)[C@H](CCCCN)NC(=O)[C@H](CC(C)C)NC(=O)[C@H](CCCCN)NC(=O)[C@H](CCCCN)NC(=O)[C@H](Cc1c[nH]c2ccccc12)NC(=O)[C@H](CCCCN)NC(=O)[C@H](CCSC)NC(=O)[C@H](CCCNC(=N)N)NC(=O)[C@H](CCCNC(=N)N)NC(=O)[C@H](CC(N)=O)NC(=O)[C@H](CCC(N)=O)NC(=O)[C@H](Cc1ccccc1)NC(=O)[C@H](Cc1c[nH]c2ccccc12)NC(=O)[C@@H](NC(=O)[C@H](CCCCN)NC(=O)[C@@H](NC(=O)[C@H](CCC(N)=O)NC(=O)[C@H](CCCNC(=N)N)NC(=O)[C@H](CSC1CC(=O)N(CCNC(=O)CCC2=[N+]3C(=Cc4c(C)cc(C)n4[B-]3(F)F)C=C2)C1=O)NC(C)=O)[C@@H](C)CC)[C@@H](C)CC)C(=O)N[C@@H](Cc1ccc(O)cc1)C(=O)N[C@@H](CCCCN)C(=O)N[C@@H](C)C(=O)N[C@@H](CCCNC(=N)N)C(=O)N[C@@H](Cc1ccccc1)C(=O)N[C@@H](CCC(N)=O)C(=O)N[C@@H](C)C(=O)N[C@@H](CCC(=O)O)C(=O)N[C@@H](CCCNC(=N)N)C(=O)N[C@@H](Cc1c[nH]cn1)C(=O)N[C@@H](C)C(=O)N[C@@H](CCCNC(=N)N)C(=O)N[C@@H](CCC(=O)O)C(=O)N[C@@H](CCCCN)C(N)=O (some centres unmarked) [BODIPY-Ant-NLM-DR] (Ac-C(BODIPYFLEthylmaleimide)RQIKIWFQNRRMKWKKLKAQADIYKARFQAERHAREK-NH2)
Cellular uptake relative efficiency (FACS) (70Z/3-C3 cells): +

CC[C@H](C)[C@H](NC(=O)[C@H](CC(=O)O)NC(=O)[C@H](C)NC(=O)[C@H](CCC(N)=O)NC(=O)[C@H](C)NC(=O)[C@H](CCCCN)NC(=O)[C@H](CC(C)C)NC(=O)[C@H](CCCNC(=N)N)NC(=O)[C@H](CCCNC(=N)N)NC(=O)[C@H](CCCNC(=N)N)NC(=O)[C@H](CCCNC(=N)N)NC(=O)[C@H](CCCNC(=N)N)NC(=O)[C@H](CCCNC(=N)N)NC(=O)[C@H](CCCNC(=N)N)NC(=O)[C@H](CSC1CC(=O)N(CCNC(=O)CCC2=[N+]3C(=Cc4c(C)cc(C)n4[B-]3(F)F)C=C2)C1=O)NC(C)=O)C(=O)N[C@@H](Cc1ccc(O)cc1)C(=O)N[C@@H](CCCCN)C(=O)N[C@@H](C)C(=O)N[C@@H](CCCNC(=N)N)C(=O)N[C@@H](Cc1ccccc1)C(=O)N[C@@H](CCC(N)=O)C(=O)N[C@@H](C)C(=O)N[C@@H](CCC(=O)O)C(=O)N[C@@H](CCCNC(=N)N)C(=O)N[C@@H](Cc1c[nH]cn1)C(=O)N[C@@H](C)C(=O)N[C@@H](CCCNC(=N)N)C(=O)N[C@@H](CCC(=O)O)C(=O)N[C@@H](CCCCN)C(N)=O (some centres unmarked) [BODIPY-R7-NLM-DR] (Ac-C(BODIPYFLEthylmaleimide)RRRRRRRLKAQADIYKARFQAERHAREK-NH2)
Cytotoxicity Cell morphology FACS [1]: no | Cytotoxicity Cell morphology Microscope [1]: no | Cellular uptake relative efficiency (FACS) (70Z/3-C3 cells): ++++

B-CRQIKIWFQNRRMKWKKSKGMQLEDLRQQGQQAEEAGVAKQELGDKLKEEAEQHKIV (C(BODIPY)RQIKIWFQNRRMKWKKSKGMQLEDLRQQGQQAEEAGVAKQELGDKLKEEAEQHKIV-NH2; not fully specified (N-terminus); printed as B-CRQIKIWFQNRRMKWKKSKGMQLEDLRQQGQQAEEAGVAKQELGDKLKEEAEQHKIV; reading uncertain) [BODIPY-Ant-CC2 (Mu)]
Effect on LPS-induced NF-κB activation [2]: did not affect the NF-κB activation
